In patent US11878965B2, “Inhibitors of peptidylarginine deiminases” (Gilead Sciences, Inc., priority 2020, dated 2024):

Each compound was assayed against human PAD4 (Homo sapiens (Human), UniProt Q9UM07) (assay: In Vitro PAD4 BAEE Biochemical Assay). Conditions: human PAD4, BAEE substrate; 5 nM PAD4, 2 mM calcium chloride, 3 mM BAEE; geometric mean of multiple experiments.
Procedure, shortened: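 Recombinant human PAD4 (His-SUMO tag removed, E. coli-expressed), 5 nM, preincubated with compound and 2 mM CaCl2 30 min at 25 °C in MOPS pH 7.6 with DTT; 3 mM BAEE added for 2 h at 25 °C, EDTA stop. Released ammonia detected by o-phthalaldehyde/DTT fluorescence (ex 405, em 535 nm).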

human PAD4, sequence (Q9UM07 2-663): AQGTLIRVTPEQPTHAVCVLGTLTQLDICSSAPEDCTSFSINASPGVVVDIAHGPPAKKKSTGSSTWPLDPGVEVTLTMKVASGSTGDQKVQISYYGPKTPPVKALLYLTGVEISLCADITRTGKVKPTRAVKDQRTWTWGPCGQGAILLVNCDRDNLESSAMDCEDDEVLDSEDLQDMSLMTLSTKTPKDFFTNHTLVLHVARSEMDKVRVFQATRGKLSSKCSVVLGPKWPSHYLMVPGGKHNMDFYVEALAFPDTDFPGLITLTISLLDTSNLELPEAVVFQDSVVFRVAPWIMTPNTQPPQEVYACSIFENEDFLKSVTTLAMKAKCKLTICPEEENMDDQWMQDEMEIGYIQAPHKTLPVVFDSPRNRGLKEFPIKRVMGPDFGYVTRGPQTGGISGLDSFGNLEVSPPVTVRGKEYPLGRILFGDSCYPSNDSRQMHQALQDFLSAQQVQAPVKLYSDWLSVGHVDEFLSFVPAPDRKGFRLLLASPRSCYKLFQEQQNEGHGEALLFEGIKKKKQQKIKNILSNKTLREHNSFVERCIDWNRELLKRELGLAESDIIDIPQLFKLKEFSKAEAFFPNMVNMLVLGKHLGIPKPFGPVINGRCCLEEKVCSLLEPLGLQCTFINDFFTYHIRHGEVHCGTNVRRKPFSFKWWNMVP

IC50 | SMILES
1360 nM | COc1cc(C(=O)N2C[C@H](N)CC[C@@H]2C)cc2nc(-c3cc4ccc(-c5ccc6[nH]ncc6c5C)nc4n3CC3CC3)n(C)c12 [Example 257, ((2S,5R)-5-amino-2-methylpiperidin-1-yl)(2-(1-(cyclopropylmethyl)-6-(4-methyl-1H-indazol-5-yl)-1H-pyrrolo[2,3-b]pyridin-2-yl)-7-methoxy-1-methyl-1H-benzo[d]imidazol-5-yl)methanone]
4910 nM | COc1cc(C(=O)N2C[C@H](N)CC[C@@H]2C)cc2nc(-c3cc4ccc(-c5sc(C(C)C)nc5C)nc4n3CC3CC3)n(C)c12 [Example 274, ((2S,5R)-5-amino-2-methylpiperidin-1-yl)(2-(1-(cyclopropylmethyl)-6-(2-isopropyl-4-methylthiazol-5-yl)-1H-pyrrolo[2,3-b]pyridin-2-yl)-7-methoxy-1-methyl-1H-benzo[d]imidazol-5-yl)methanone]
269 nM | COc1cc(C(=O)N2C[C@H](N)CC[C@@H]2C)cc2nc(-c3cc4ccc(-c5cccnc5S(C)(=O)=O)nc4n3CC3CC3)n(C)c12 [Example 265, ((2S,5R)-5-amino-2-methylpiperidin-1-yl)(2-(1-(cyclopropylmethyl)-6-(2-(methylsulfonyl)pyridin-3-yl)-1H-pyrrolo[2,3-b]pyridin-2-yl)-7-methoxy-1-methyl-1H-benzo[d]imidazol-5-yl)methanone]
88.5 nM | COc1cc(C(=O)N2CCC[C@@H](N)C2)cc2nc(-c3cc4ccc(N(C5CC5)S(C)(=O)=O)nc4n3CC3CC3)n(C)c12 [Example 17, (R)-N-(2-(5-(3-aminopiperidine-1-carbonyl)-7-methoxy-1-methyl-1H-benzo[d]imidazol-2-yl)-1-(cyclopropylmethyl)-1H-pyrrolo [2,3-b]pyridin-6-yl)-N-cyclopropylmethanesulfonamide]

Continued, compound first:

SMILES | IC50
COc1cc(C(=O)N2CCC[C@@H](N)C2)cc2nc(-c3cc4ccc([C@@H](C)NC(=O)c5ccccc5)cc4n3CC3CC3)n(C)c12 [Example 137, N-((R)-1-(2-(5-((R)-3-aminopiperidine-1-carbonyl)-7-methoxy-1-methyl-1H-benzo[d]imidazol-2-yl)-1-(cyclopropylmethyl)-1H-indol-6-yl)ethyl)benzamide] | 37.2 nM
COc1cc(C(=O)N2C[C@H](N)CCN2C)cc2nc(-c3cc4ccc([C@@H](C)NC(=O)c5nccc(C(F)(F)F)n5)nc4n3CC3CC3)n(C)c12 [Example 182, N-((R)-1-(2-(5-((R)-5-amino-2-methylhexahydropyridazine-1-carbonyl)-7-methoxy-1-methyl-1H-benzo[d]imidazol-2-yl)-1-(cyclopropylmethyl)-1H-pyrrolo[2,3-b]pyridin-6-yl)ethyl)-4-(trifluoromethyl)pyrimidine-2-carboxamide] | 104 nM
Cc1cc2c(cc1C(=O)N1C[C@H]3CC[C@@H]1[C@@H]3N)nc(-c1cc3ccc(N(C(F)F)S(C)(=O)=O)nc3n1CC1CC1)n2C1CC1 [Example 59, N-(2-(5-((1R,4R,7R)-7-amino-2-azabicyclo[2.2.1]heptane-2-carbonyl)-1-cyclopropyl-6-methyl-1H-benzo[d]imidazol-2-yl)-1-(cyclopropylmethyl)-1H-pyrrolo [2,3-b]pyridin-6-yl)-N-(difluoromethyl) methanesulfonamide] | 9410 nM
COc1cc(C(=O)N[C@@H]2CCNC2)cc2nc(-c3cc4ccc(N(C(F)F)S(C)(=O)=O)nc4n3CC3CC3)n(C)c12 [Example 72, (R)-2-(1-(cyclopropylmethyl)-6-((N-(difluoromethyl)methyl)sulfonamido)-1H-pyrrolo[2,3-b]pyridin-2-yl)-7-methoxy-1-methyl-N-(pyrrolidin-3-yl)-1H-benzo[d] imidazole-5-carboxamide] | 20900 nM
COc1cc(C(=O)N2[C@H]3CC[C@@H]2[C@H](N)C3)cc2nc(-c3cc4ccc([C@@H](C)NC(=O)C5(C(F)(F)F)CC5)nc4n3CC3CC3)n(C)c12 [Example 207, N-((R)-1-(2-(5-((1R,2R,4S)-2-amino-7-azabicyclo[2.2.1]heptane-7-carbonyl)-7-methoxy-1-methyl-1H-benzo[d]imidazol-2-yl)-1-(cyclopropylmethyl)-1H-pyrrolo[2,3-b]pyridin-6-yl)ethyl)-1-(trifluoromethyl)cyclopropane-1-carboxamide] | 240 nM
COc1cc(C(=O)N2CCCC3(CCN3)C2)cc2nc(-c3cc4ccc(N(C(F)F)S(C)(=O)=O)nc4n3CC3CC3)n(C)c12 (stereo not drawn) [Example 75, N-(1-(cyclopropylmethyl)-2-(7-methoxy-1-methyl-5-(1,6-diazaspiro[3.5]nonane-6-carbonyl)-1H-benzo[d]imidazol-2-yl)-1H-pyrrolo[2,3-b]pyridin-6-yl)-N-(difluoromethyl) methanesulfonamide] | 50000 nM
COc1cc(C(=O)N2CCCC3(CCCCN3)C2)cc2nc(-c3cc4ccc(N(C(F)F)S(C)(=O)=O)nc4n3CC3CC3)n(C)c12 (stereo not drawn) [Example 68, N-(1-(cyclopropylmethyl)-2-(7-methoxy-1-methyl-5-(1,8-diazaspiro[5.5]undecane-8-carbonyl)-1H-benzo[d]imidazol-2-yl)-1H-pyrrolo[2,3-b]pyridin-6-yl)-N-(difluoromethyl) methanesulfonamide] | 50000 nM
COc1cc(C(=O)N[C@@H]2CNC[C@H]2NC(=O)/C=C/CN(C)C)cc2nc(-c3cc4ccc(N(C(F)F)S(C)(=O)=O)nc4n3CC3CC3)n(C)c12 (stereo in doubt) [Example 71, 2-[1-(cyclopropylmethyl)-6-[difluoromethyl(methylsulfonyl)amino]pyrrolo[2,3-b]pyridin-2-yl]-N-[(3R,4R)-4-[[(E)-4-(dimethylamino)but-2-enoyl]amino]pyrrolidin-3-yl]-7-methoxy-1-methyl-benzimidazole-5-carboxamide] | 490 nM
C#CC(=O)N[C@@H]1CNC[C@H]1NC(=O)c1cc(OC)c2c(c1)nc(-c1cc3ccc(N(C(F)F)S(C)(=O)=O)nc3n1CC1CC1)n2C [Example 81, 2-(1-(cyclopropylmethyl)-6-((N-(difluoromethyl)methyl)sulfonamido)-1H-pyrrolo[2,3-b]pyridin-2-yl)-7-methoxy-1-methyl-N-((3R,4R)-4-propiolamidopyrrolidin-3-yl)-1H-benzo[d]imidazole-5-carboxamide] | 4630 nM

Same assay, conditions: recombinant PAD4 5 nM, 2 mM calcium chloride, 3 mM BAEE substrate; geometric mean of multiple experiments

IC50 | SMILES
570 nM | COc1cc(C(=O)N2C[C@H](N)[C@@H]3CC[C@H]2C3)cc2nc(-c3cc4ccc([C@@H](C)NC(=O)c5ccnc(C(F)(F)F)n5)nc4n3CC3CC3)n(C)c12 [Example 316, N-((R)-1-(2-(5-((1S,4R,5R)-4-amino-2-azabicyclo[3.2.1]octane-2-carbonyl)-7-methoxy-1-methyl-1H-benzo[d]imidazol-2-yl)-1-(cyclopropylmethyl)-1H-pyrrolo[2,3-b]pyridin-6-yl)ethyl)-2-(trifluoromethyl)pyrimidine-4-carboxamide]
140 nM | COc1cc(C(=O)N2C[C@H](N)[C@@H]3CC[C@H]2C3)cc2nc(-c3cc4ccc([C@@H](C)NC(=O)c5cnc(C(F)(F)F)nc5)nc4n3CC3CC3)n(C)c12 [Example 314, N-((R)-1-(2-(5-((1S,4R,5R)-4-amino-2-azabicyclo[3.2.1]octane-2-carbonyl)-7-methoxy-1-methyl-1H-benzo[d]imidazol-2-yl)-1-(cyclopropylmethyl)-1H-pyrrolo[2,3-b]pyridin-6-yl)ethyl)-2-(trifluoromethyl)pyrimidine-5-carboxamide]
